Results published in PubChem BioAssay (NCI).
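Exposure lasted 48 hours, with cells grown in 96-well plates and compounds tested at five concentrations. Abbreviation: GI50, concentration required for 50% inhibition of growth. TGI: total growth inhibition.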

What was measured:
Assay in all cases: DTP human tumour cell line panel, 48 h
[1] = tested on: A498 renal
[2] = tested on: ACHN renal
[3] = tested on: HCT-116 colon
[4] = tested on: HL-60(TB) leukemia
[5] = tested on: HOP-62 NSCLC
[6] = tested on: M14 melanoma
[7] = tested on: MDA-MB-231 breast
[8] = tested on: NCI-H23 lung
[9] = tested on: NCI-H460 lung
[10] = tested on: NCI/ADR-RES ovarian
[11] = tested on: PC-3 prostate
[12] = tested on: RXF 393 renal
[13] = tested on: SF-295 CNS
[14] = tested on: SK-MEL-28 melanoma
[15] = tested on: SK-OV-3 ovarian
[16] = tested on: SNB-19 CNS
[17] = tested on: SW-620 colon
[18] = tested on: U251 CNS

SMILES | TGI [1] [µM] | TGI [2] [µM] | TGI [3] [µM] | TGI [4] [µM] | TGI [5] [µM] | TGI [6] [µM] | TGI [7] [µM] | TGI [8] [µM] | TGI [9] [µM] | TGI [10] [µM] | TGI [11] [µM] | TGI [12] [µM] | TGI [13] [µM] | TGI [14] [µM] | TGI [15] [µM] | TGI [16] [µM] | TGI [17] [µM] | TGI [18] [µM] | GI50 [5] [µM] | GI50 [12] [µM]
CC(C)(C)C(O)CC(O)(C(F)(F)F)C(F)(F)F (stereo not drawn) | > 100 | > 100 | > 100 | > 100 | > 100 | > 100 | > 100 | > 100 | > 100 | > 100 | > 100 | > 100 | > 100 | > 100 | > 100 | > 100 | > 100 | > 100 | – | –
CCOC(=O)c1cc(C2=CCNC2=O)c(-c2cc(C)no2)[nH]1 | > 100 | > 100 | > 100 | 56.8 | > 100 | > 100 | > 100 | > 100 | > 100 | > 100 | > 100 | > 100 | > 100 | > 100 | > 100 | > 100 | > 100 | > 100 | – | –
O=C(CC(Cc1ccccc1)c1ccc(Oc2ccccc2)cc1)Nc1cccc(Cl)c1 (stereo not drawn) | 26.3 | 27.1 | > 100 | 10.2 | > 100 | > 100 | 53.8 | > 100 | > 100 | 38.3 | 27.2 | 62.8 | 15.4 | > 100 | > 100 | > 100 | > 100 | > 100 | – | –
CC(C)C1CC(CO)(CNc2nc(N)nc(Cl)c2/C=N\O)C1 (stereo not drawn) | 34.6 | 35 | 34 | 29.1 | > 100 | 26.1 | 31.6 | 24.3 | 3.14 | 27.5 | 26.5 | 55.1 | > 68.2 | 26.1 | 30.2 | > 100 | 61.2 | 39.6 | – | –
COc1ccc(C2CC(c3ccc(NS(=O)(=O)c4cc([N+](=O)[O-])ccc4C)cc3)=NN2S(=O)(=O)c2cc([N+](=O)[O-])ccc2C)cc1 (stereo not drawn) | > 100 | > 100 | > 100 | > 100 | > 100 | > 100 | > 100 | 78.7 | > 100 | > 100 | > 100 | > 100 | > 100 | > 100 | > 100 | > 100 | > 100 | > 100 | – | –
Cc1cn(CC2=NC3CCCCC3N2)c(=O)[nH]c1=O (stereo not drawn) | > 100 | > 100 | > 100 | > 100 | > 100 | > 100 | > 100 | > 100 | > 100 | > 100 | > 100 | > 100 | > 100 | > 100 | > 100 | > 100 | > 100 | > 100 | – | –
Cc1ccc(S(=O)(=O)NN=C2C(C)(C)CC2(C)C)cc1 | > 100 | > 100 | > 100 | > 100 | > 100 | > 100 | > 100 | > 100 | > 100 | > 100 | > 100 | > 100 | > 100 | > 100 | > 100 | > 100 | > 100 | > 100 | – | –
C[C@@H](Oc1ccc(Oc2cnc3ccc(Cl)cc3n2)cc1)C(=O)O | > 100 | > 100 | > 100 | > 100 | > 100 | > 100 | > 100 | > 100 | > 100 | > 100 | > 100 | > 100 | > 100 | > 100 | > 100 | > 100 | > 100 | > 100 | > 85.3 | > 30.5
Cc1c2oc3c(C)cnc(C(=O)NC4C(=O)NC(C(C)C)C(=O)N5CCCC5C(=O)N(C)CC(=O)N(C)C(C(C)C)C(=O)OC4C)c3nc-2c(C(=O)NC2C(=O)NC(C(C)C)C(=O)N3CCCC3C(=O)N(C)CC(=O)N(C)C(C(C)C)C(=O)OC2C)c(N)c1=O (stereo not drawn) | 29.8 | > 64.6 | > 35.5 | > 26 | > 57.7 | 16.8 | 41.3 | > 54.8 | > 24.6 | > 75 | > 47.1 | 18.8 | 39.9 | 30.3 | 61.5 | > 68.4 | > 53.3 | > 38 | – | –
CN1C(=O)N/C(=C\c2ccc(S(=O)(=O)N/N=C/c3ccccc3)cc2)C1=O | > 100 | > 100 | > 100 | > 100 | > 100 | > 100 | > 100 | > 100 | 34.4 | > 100 | > 100 | 98.1 | > 100 | > 100 | > 100 | > 100 | > 100 | > 100 | – | –
Cc1cccc2c(N)c3cccc(C(=O)NCC[N+](C)(C)Cc4ccc(S(C)(=O)=O)cc4)c3nc12 | 65 | > 100 | > 100 | 38.6 | > 100 | > 100 | > 100 | > 100 | > 100 | > 100 | > 100 | > 100 | > 100 | > 100 | > 100 | > 100 | > 100 | > 100 | – | –
O=C1CNc2cc(N3CCOCC3)ccc2N1 | > 100 | > 100 | > 100 | > 100 | > 100 | > 100 | > 100 | > 100 | > 100 | > 100 | > 100 | > 100 | > 100 | > 100 | > 100 | > 100 | > 100 | > 100 | – | –
